What was measured:
[1] = test system: IRF3 signaling pathway in THP1-Lucia™ ISG cells; test: THP1-Lucia ISG reporter assay: induction of IRF3-dependent gene expression (secreted luciferase); assay type: cell-based, human; details: Homo sapiens, THP1-Lucia ISG, PMA-differentiated cells, 18 h after stimulation, read-out: fold increase of IRF3-dependent luciferase activity over background, THP1 ISG; for fold induction at 10 µM: 10 μM compound
Description: The compounds were evaluated in the THP1-Lucia™ ISG (interferon stimulated genes) reporter assay to determine if the compounds activate the IRF3 signaling pathway. The THP1-Lucia™ cells (InvivoGen) express the secreted luciferase (Lucia) reporter gene under the control of an IRF-inducible promoter. The reporter cell line was developed from human monocytic leukemia THP-1 cells.
The promoter was comprised of five IFN-stimulated response elements (ISRE) fused to an ISG54 minimal promoter which is unresponsive to NF-kB or AP-1 pathways. […] The IRF3-deficient THP1-Lucia™ ISG IRF3−/−reporter cell line was generated by CRISPR technology from the parent THP1-Lucia™ ISG reporter cell line.
THP1-Lucia™ ISG cells and IRF3-deficient THP1-Lucia™ ISG IRF3−/−cells were differentiated with PMA (100 ng/ml) and stimulated with compounds at the indicated concentrations (5 to 20 μM), positive control, or not treated (background). Luciferase secretion was quantified using the QUANTI-Luc luciferase assay system (InvivoGen) 18 h after stimulation. Data are shown as fold increase luciferase activity over background in Table 7 and represent the IRF3-dependent ISG54 promoter activity by the THP1-Lucia™ ISG cells in response to compounds. […] The fold increase of compounds (10 μM, *20 μM, **5 μM) induced IRF3 dependent luciferase activity is indicated as follows: “≠” indicates less than 2.4 fold increase; “+” indicates a 2.4-4.9 fold increase; “++” indicates a 5-9.9 fold increase; “+++” indicates a 10-19 fold increase; “++++” indicates a 20-39 fold increase; “+++++” indicates greater than or equal to 40 fold increase.

[2] = test system: murine CT26 colon carcinoma cells; test: RIG-I dependent CXCL10 secretion by CT26 cells (ELISA); assay type: cell-based; details: supernatant 24 h after stimulation
Description: (§1) The CT26 murine colon carcinoma cell line (ATCC) was used to evaluate the induction of CXCL10 secretion. CXCL10 is an important chemokine in tumor immune biology that recruits tumor-specific T cells to the tumor. To confirm that compound-mediated CXCL10 production was RIG-I specific, RIG-1 deficient CT2-RIG-I−/−cells were generated by Kineta Inc. using CRISPR technology.
(§2) CT26 cells were seeded at a density of 1×10^4 cells per well on a 96-well tissue culture plate in 100 μL of cell culture and cells were incubated at 37° C. and 5% CO2 for 24 hr. Next, CT26 cells were treated with compounds at the indicated concentrations. CXCL10 was quantified by ELISA from supernatants taken 24 h after compound stimulation by use of the CXCL10 Duo Set ELISA kit (Cat #DY466, R&D, Minneapolis, Minn., USA) according to the manufacturer's instructions.
(§3) CXCL10 secretion by CT26 cells in response to compounds (in an amount of 5 to 20 μM) of the present disclosure is shown in Table 8. The compound-induced CXCL10 production was RIG-I dependent, since none of the compounds mediated CXCL10 secretion in RIG-I deficient CT26 RIG-I−/−cells (about 0 pg/mL of CXCL10, or below the level of quantitation). The compounds (10 μM, *20 μM, **5 μM) are indicated in the table as follows: “≠” indicates less than 100 pg/mL; “+” indicates 100-199 pg/mL; “++” indicates 200-399 pg/mL; “+++” indicates 400-799 pg/mL; “++++” indicates 800 to 1599 pg/mL; “+++++” indicates greater than or equal to 1600 pg/ml.

[3] = test system: RIG-I deficient CT26 RIG-I−/− cells; test: CXCL10 secretion by RIG-I deficient CT26 RIG-I−/− cells (ELISA); assay type: cell-based, murine; details: compound 5 to 20 μM, 24 h
Description: as §1, §2, §3

Row | SMILES | fold induction at 10 µM [1] | CXCL10 secretion, CT26 ([2]; 10 μM compound) | CXCL10 secretion, CT26 RIG-I−/− [3] | CXCL10 secretion, CT26 ([2]; 20 μM compound (*)) | fold induction at 5 µM ([1]; 5 μM compound (**))
1 | O=C(Nc1nc2ccc3scnc3c2s1)c1cc2c(cc1OCCN1CCOCC1)OCO2 [Example 40, N-{3,10-dithia-5,12-diazatricyclo[7.3.0.0^2,^6]dodeca-1,4,6,8,11-pentaen-4-yl}-6-[2-(morpholin-4-yl)ethoxy]-2H-1,3-benzodioxole-5-carboxamide] | 20 to 39 | ≠ (less than 100 pg/mL) | − |  | 
2 | CSc1nc2c(ccc3nc(NC(=O)c4cc5ccccc5cc4OCCCN4CCOCC4)sc32)s1 [Example 36, N-[11-(methylsulfanyl)-3,10-dithia-5,12-diazatricyclo[7.3.0.0^2,^6]dodeca-1,4,6,8,11-pentaen-4-yl]-3-[3-(morpholin-4-yl)propoxy]naphthalene-2-carboxamide] | 5 to 9.9 | +++ (400-799 pg/mL) | − |  | 
3 | Cc1nc2c(ccc3nc(NC(=O)c4ccc5ccccc5c4)sc32)s1 [Example 23, N-{11-methyl-3,10-dithia-5,12-diazatricyclo[7.3.0.0^2,^6]dodeca-1,4,6,8,11-pentaen-4-yl}naphthalene-2-carboxamide] | 5 to 9.9 |  | − | +++++* (greater than or equal to 1600 pg/ml) | 
4 | O=C(Nc1nc2ccc3scnc3c2s1)c1cc2ccccc2cc1OCCNCCO [Example 46, N-{3,10-dithia-5,12-diazatricyclo[7.3.0.0^2,^6]dodeca-1,4,6,8,11-pentaen-4-yl}-3-{2-[(2-hydroxyethyl)amino]ethoxy}naphthalene-2-carboxamide] |  | +++ (400-799 pg/mL) | − |  | 2.4 to 4.9
5 | O=C(Nc1nc2ccc3scnc3c2s1)c1cc2c(cc1OCCCCN1CCOCC1)OCO2 [Example 41, N-{3,10-dithia-5,12-diazatricyclo[7.3.0.0^2,^6]dodeca-1,4,6,8,11-pentaen-4-yl}-6-[4-(morpholin-4-yl)butoxy]-2H-1,3-benzodioxole-5-carboxamide] | 2.4 to 4.9 | + (100-199 pg/mL) | − |  | 
6 | CCCCCOc1ccc(C(=O)Nc2nc3ccc4sc(C)nc4c3s2)cc1 [Example 5, N-{11-methyl-3,10-dithia-5,12-diazatricyclo[7.3.0.0^2,^6]dodeca-1,4,6,8,11-pentaen-4-yl}-4-(pentyloxy)benzamide] | 5 to 9.9 |  | − | +* (100-199 pg/mL) | 
7 | COc1nc2c(ccc3nc(NC(=O)c4cc5ccccc5cc4OCCN4CCCCC4)sc32)s1 [Example 30, N-{11-methoxy-3,10-dithia-5,12-diazatricyclo[7.3.0.0^2,^6]dodeca-1,4,6,8,11-pentaen-4-yl}-3-[2-(piperidin-1-yl)ethoxy]naphthalene-2-carboxamide] | 10 to 19 | +++ (400-799 pg/mL) | − |  | 
8 | O=C(Nc1nc2ccc3scnc3c2s1)c1ccc2sccc2c1 [Example 14, N-{3,10-dithia-5,12-diazatricyclo[7.3.0.0^2,^6]dodeca-1,4,6,8,11-pentaen-4-yl}-1-benzothiophene-5-carboxamide] | 10 to 19 |  | − | ++* (200-399 pg/mL) | 
9 | O=C(Nc1nc2ccc3scnc3c2s1)c1ccc2nsnc2c1 [Example 12, N-{3,10-dithia-5,12-diazatricyclo[7.3.0.0^2,^6]dodeca-1,4,6,8,11-pentaen-4-yl}-2,1,3-benzothiadiazole-5-carboxamide] | 5 to 9.9 | ++++ (800 to 1599 pg/mL) | − |  | 
10 | O=C(Nc1nc2ccc3scnc3c2s1)c1cc2ccccc2cc1OCCN1CCOCC1 [Example 24, N-{3,10-dithia-5,12-diazatricyclo[7.3.0.0^2,^6]dodeca-1,4,6,8,11-pentaen-4-yl}-3-[2-(morpholin-4-yl)ethoxy]naphthalene-2-carboxamide] | 20 to 39 | +++ (400-799 pg/mL) | − |  | 
11 | CCN(CCO)CCOc1cc2ccccc2cc1C(=O)Nc1nc2ccc3scnc3c2s1 [Example 45, N-{3,10-Dithia-5,12-diazatricyclo[7.3.0.0^2,6]dodeca-1,4,6,8,11-pentaen-4-yl}-3-{2-[ethyl(2-hydroxyethyl)amino]ethoxy}naphthalene-2-carboxamide carboxamide] | 10 to 19 | +++ (400-799 pg/mL) | − |  | 
12 | O=C(Nc1nc2ccc3scnc3c2s1)c1cc2ccccc2cc1OCCCN1CCOCC1 [Example 1, N-{3,10-dithia-5,12-diazatricyclo[7.3.0.0^2,6]dodeca-1,4,6,8,11-pentaen-4-yl}-3-[3-(morpholin-4-yl)propoxy]naphthalene-2-carboxamide] | 2.4 to 4.9 | ++++ (800 to 1599 pg/mL) | − |  | 
13 | Cn1ccc2ccc(C(=O)Nc3nc4ccc5scnc5c4s3)cc21 [Example 20, N-{3,10-dithia-5,12-diazatricyclo[7.3.0.0^2,^6]dodeca-1,4,6,8,11-pentaen-4-yl}-1-methyl-1H-indole-6-carboxamide] | 10 to 19 | +++ (400-799 pg/mL) | − |  | 
14 | O=C(Nc1nc2ccc3scnc3c2s1)c1ccc(-c2ccccc2)cc1 [Example 21, N-{3,10-dithia-5,12-diazatricyclo[7.3.0.0^2,^6]dodeca-1,4,6,8,11-pentaen-4-yl}-[1,1′-biphenyl]-4-carboxamide] | 10 to 19 | + (100-199 pg/mL) | − |  | 
15 | COc1nc2c(ccc3nc(NC(=O)c4cc5ccccc5cc4OCCCCN4CCOCC4)sc32)s1 [Example 32, N-{11-methoxy-3,10-dithia-5,12-diazatricyclo[7.3.0.0^2,^6]dodeca-1,4,6,8,11-pentaen-4-yl}-3-[4-(morpholin-4-yl)butoxy]naphthalene-2-carboxamide] | 10 to 19 | ++ (200-399 pg/mL) | − |  | 
16 | COc1nc2c(ccc3nc(NC(=O)c4cc5ccccc5cc4OCCN4CCOCC4)sc32)s1 [Example 29, N-{11-methoxy-3,10-dithia-5,12-diazatricyclo[7.3.0.0^2,^6]dodeca-1,4,6,8,11-pentaen-4-yl}-3-[2-(morpholin-4-yl)ethoxy]naphthalene-2-carboxamide] | 10 to 19 | + (100-199 pg/mL) | − |  | 
17 | COc1cc(OC)cc(C(=O)Nc2nc3ccc4sc(C)nc4c3s2)c1 [Example 2, 3,5-dimethoxy-N-{11-methyl-3,10-dithia-5,12-diazatricyclo[7.3.0.0^2,^6]dodeca-1,4,6,8,11-pentaen-4-yl}benzamide] | 5 to 9.9 |  | − | ++++* (800 to 1599 pg/mL) | 
18 | O=C(Nc1nc2ccc3scnc3c2s1)c1cc2ccccc2cc1OCCCCN1CCOCC1 [Example 28, N-{3,10-dithia-5,12-diazatricyclo[7.3.0.0^2,^6]dodeca-1,4,6,8,11-pentaen-4-yl}-3-[4-(morpholin-4-yl)butoxy]naphthalene-2-carboxamide] | 2.4 to 4.9 | ++ (200-399 pg/mL) | − |  | 
